Test results: PMC2694220 (Biochemistry, 2009)

How the values were obtained:
[1] = molecular target: WbpE (Pseudomonas aeruginosa, UniProt Q9HZ76); assay: capillary electrophoresis, coupled WbpB/WbpE reaction; assay type: biochemical; settings: 25 mM L-glutamine in place of L-glutamate; otherwise same
[2] = molecular target: WbpB (Pseudomonas aeruginosa, UniProt G3XD23); assay: capillary electrophoresis of conversion to UDP-GlcNAc; assay type: biochemical; settings: 10 mM α-KG, 50 mM HEPES pH 8.0, 30 °C, no WbpE
Sequence of WbpB (G3XD23 whole entry): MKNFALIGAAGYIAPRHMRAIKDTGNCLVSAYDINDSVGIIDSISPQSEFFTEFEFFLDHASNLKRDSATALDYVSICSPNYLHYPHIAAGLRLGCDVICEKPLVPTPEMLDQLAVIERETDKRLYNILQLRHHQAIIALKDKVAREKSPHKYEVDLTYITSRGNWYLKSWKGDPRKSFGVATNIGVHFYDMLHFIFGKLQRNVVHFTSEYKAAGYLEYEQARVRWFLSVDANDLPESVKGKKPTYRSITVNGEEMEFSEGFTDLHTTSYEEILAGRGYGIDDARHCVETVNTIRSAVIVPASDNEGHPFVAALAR

[3] = tested on: CC(=O)N[C@H]1[C@@H](OP(=O)(O)OP(=O)(O)OC[C@H]2O[C@@H](n3ccc(=O)[nH]c3=O)[C@H](O)[C@@H]2O)O[C@H](C(=O)O)[C@@H](O)[C@@H]1N; assay: purified protein; settings: 1.5 mM AcCoA, 50 mM HEPES pH 7.0, 30 °C, BSA carrier

Sequence of WbpE (Q9HZ76 whole entry): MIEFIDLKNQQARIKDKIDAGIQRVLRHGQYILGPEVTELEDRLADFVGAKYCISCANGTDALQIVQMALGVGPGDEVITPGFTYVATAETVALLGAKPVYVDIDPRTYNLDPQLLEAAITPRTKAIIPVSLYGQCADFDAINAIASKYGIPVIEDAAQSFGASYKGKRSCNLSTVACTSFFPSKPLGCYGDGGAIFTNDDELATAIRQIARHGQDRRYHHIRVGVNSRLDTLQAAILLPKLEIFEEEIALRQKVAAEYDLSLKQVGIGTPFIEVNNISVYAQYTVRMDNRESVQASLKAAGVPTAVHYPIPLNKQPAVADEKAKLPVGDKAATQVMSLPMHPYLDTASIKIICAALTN

NC(=O)CC[C@H](N)C(=O)O [L-glutamine]
% conversion at 25 mM [1]: 10%

CC(=O)N[C@H]1[C@@H](OP(=O)(O)OP(=O)(O)OC[C@H]2O[C@@H](n3ccc(=O)[nH]c3=O)[C@H](O)[C@@H]2O)O[C@H](C(=O)O)[C@@H](O)[C@@H]1O [UDP-GlcNAcA]
capillary electrophoresis of conversion to UDP-GlcNAc(3keto)A [2]: complete conversion of the UDP-GlcNAcA starting material to the UDP-GlcNAc(3keto)A product was observed by CE

WbpD (Pseudomonas aeruginosa PAO1)
Km [3]: 107 ± 15 µM
kcat [3]: (2.9 ± 0.12) × 10^3 min^−1
